Reference: publication PMC9356726 (Molecular Biology and Evolution, 2022)

Tested on: AlmA
Assay type: biochemical, Streptomyces sp. A012304
Conditions: succinyl-CoA regenerated, 20 mM HEPES-NaOH pH 7.5, 20 μM PLP, 3 mM MgCl2, 37°C, 0.01 μM enzyme

Km: 6.8 ± 1.4 mM
Compound: N[C@@H](CO)C(=O)O [serine]
